A short description of the data set: PK of CNP compounds after i.v. and s.c. administration to rats. The settings on record: male, Sprague Dawley, in vivo, rat. As to the method: In order to assess the i.v. and s.c. PK/PD profile of CNP compounds of the present invention, formulations of CNP compounds were administered to rats, blood samples taken and exposure and cGMP response measured.
Quantitative plasma analysis of CNP-compounds: Plasma concentrations of CNP compounds were assayed by plasma protein precipitation and analysed by turboflow liquid chromatography mass spectrometry (TF-LC-MS). Calibrators were prepared by spiking either blank rat or minipig plasma with the relevant CNP compound in the range from 0.5 to 2000 nM. Calibrators, plasma blanks or study samples were prepared for TF-LC-MS by protein precipitation by adding three or four volumes of either ethanol or methanol containing 20 nM of internal standard to one volume of sample. For some compounds, formic acid was added to the precipitation reagent (the final concentration was 1% v/v). After the addition of the precipitation reagent, the mixture was centrifuged at 6200 rpm at 4° C. for 30 minutes. After centrifugation, one volume of supernatant was mixed with two volumes of water (with 1% v/v formic acid). The mixture was analysed by TF-LC-MS using a Cyclone turboflow column (0.5×50 mm, ThermoFisher Scientific) and either a XBridge Protein BEH C4 3.5 μm 300 Åor a XBridge Protein BEH C18 3.5 μm 130 Åanalytical column (both were 50×2.1 mm and obtained from Waters). […] The mass spectrometer was operated in positive ionisation mode. A TSQ Altis mass spectrometer (ThermoFisher Scientific) was used as detector in selected reaction monitoring mode (specific transition were optimised for each CNP compound). Linear calibration curves (weighed 1/×2) were used for calculating the concentration in the plasma samples. Quality control samples were included. The deviation between nominal and calculated concentration in the calibrators and quality control samples were below 15%.
Animals and dosing: Groups of 4-6 rats (male, Sprague Dawley, 350 g at arrival, Janvier, France) per compound and route of administration were dosed with a CNP compound formulated either in A) 8 mM sodium phosphate, 250 mM glycerol, 0.007% polysorbate 20, pH 7.4 or B) 5 mM sodium acetate, 250 mM glycerol, 0.007% polysorbate 20, pH 4.0 depending on the respective compound. S.c. dose was 300 nmol/kg, at a concentration of […] resulting in a dosing volume of 0.3 mL/kg, whereas i.v. dose was 100 nmol/kg, at a concentration of […] resulting in a dosing volume of 1 mL/kg.
Sampling: Sublingual blood samples of 250 uL were collected from unanaesthetised rats in EDTA-coated vials (Microvette 600K3E ref #15.1673.100 Sarstedt) at baseline (-1 h before dosing) as well as 5 min (only i.v. dosed groups), 2 h, 6 h, 24 h, 48 h and 72 h (only for exposure analysis) post-dosing. The blood samples were quickly stored on ice and centrifuged (4° C., 8000 RPM, 5 min) within 10 min of collection. Plasma samples of 50 μL were transferred to each micronic tube for either exposure or cGMP analysis, kept on dry ice and stored in a freezer (−20° C.). Rats had access to food (Altromin) and tap water ad libitum.
Analysis: PK parameters were calculated by non-compartment analysis (NCA) using software Phoenix WinNonlin (ver. 8.1 or later, Certara) for each animal. Clearance (Cl) was calculated as: Dose/AUCinf (linear up, log down). […] Bioavailability was calculated as dose normalized AUC's: (AUC(sc)/Dose(sc))/(AUC(iv)/Dose(iv)). Values in the table are means from individual animals (n=4-6 individual animals). The subsequent plots for cGMP plasma concentration versus time are (Y-axis) mean cGMP concentration (n=4-6 individual animals) after IV dosing and (X-axis) nominal plasma sampling time.
Plasma cGMP are reported as the mean.

Where [1] appears, read: iv, i.v., about 100 nmol/kg, read-out: Cl (L/hr/kg), i.v. administration (converted).
Where [2] appears, read: iv, i.v., about 100 nmol/kg, read-out: T½ (hr), i.v. administration (converted).

The structures appear in SMILES notation. Where two headings read alike, the source gives them in different places. Starred links: 1 amine or outer side, 2 acyl side, 3 side chain; linkers in the order of their positions; H or OH if unused. Positions of bridges follow the written chain, without caps; N, C: chain ends. Residues, ends and D or L forms follow the SMILES beside them. *: point of attachment. C18 diacid = O=C(O)CCCCCCCCCCCCCCCCC(=O)*; γGlu = O=C(O)[C@H](CCC(=O)[*:2])N[*:1]; AEEA = NCCOCCOCC(=O)O

On to `CC[C@H](C)[C@@H]1NC(=O)[C@H](CCCNC(=N)N)NC(=O)[C@H](CC(=O)O)NC(=O)[C@H](CC(C)C)NC(=O)[C@@H]2CCCN2C(=O)[C@H](CC(C)C)NC(=O)CNC(=O)[C@H](Cc2ccccc2)NC(=O)[C@@H](NC(=O)CNC(=O)[C@H](CO)NC(=O)[C@H](CO)NC(=O)[C@H](CC(C)C)NC(=O)CNC(=O)[C@H](CCCCN)NC(=O)[C@H](CCCCN)NC(=O)[C@H](CCC(N)=O)NC(=O)[C@H](C)NC(=O)CNC(=O)[C@H](CCCCN)NC(=O)[C@H](Cc2ccc(O)cc2)NC(=O)[C@H](CCCCN)NC(=O)[C@H](CCCNC(=N)N)NC(=O)[C@H](C)NC(=O)[C@H](CCC(N)=O)NC(=O)[C@@H]2CCCN2C(=O)[C@H](Cc2c[nH]cn2)NC(=O)[C@H](CCC(=O)O)NC(=O)[C@H](CCC(N)=O)NC(=O)CC[C@H](NC(=O)CC[C@H](NC(=O)CC[C@H](NC(=O)CC[C@H](NC(=O)CC[C@H](NC(=O)CCCCCCCCCCCCCCCCC(=O)O)C(=O)O)C(=O)O)C(=O)O)C(=O)O)C(=O)O)CSSC[C@@H](C(=O)O)NC(=O)CNC(=O)[C@H](CC(C)C)NC(=O)CNC(=O)[C@H](CO)NC(=O)[C@H](CC(C)C)NC(=O)[C@H](CO)NC(=O)CNC1=O` [compound 9482] ({C18 diacid-γGlu-γGlu-γGlu-γGlu-γGlu}-QEHPQARKYKGAQKKGLSSGCFGLPLDRIGSLSGLGC-OH; disulfide 21-37), for which the clearance under setting [1] was 0.00549 L/h/kg. Moreover, the half-life was 14.5 h under setting [2] and 18.6 h (sc, s.c., about 300 nmol/kg, read-out: T½ (hr), s.c. administration (converted)). For the same molecule, the bioavailability (sc, s.c. bioavailability, about 300 nmol/kg, read-out: F (%), s.c. administration) worked out at 71.5%.
As for `CC[C@H](C)[C@@H]1NC(=O)[C@H](CCCNC(=N)N)NC(=O)[C@H](CC(=O)O)NC(=O)[C@H](CC(C)C)NC(=O)[C@@H]2CCCN2C(=O)[C@H](CC(C)C)NC(=O)CNC(=O)[C@H](Cc2ccccc2)NC(=O)[C@@H](NC(=O)CNC(=O)[C@H](CCCCN)NC(=O)[C@H](CO)NC(=O)CNC(=O)CNC(=O)[C@H](CCCCN)NC(=O)[C@H](CCCCN)NC(=O)[C@H](CCC(N)=O)NC(=O)[C@H](C)NC(=O)CNC(=O)[C@H](CCC(=O)O)NC(=O)[C@H](Cc2ccc(O)cc2)NC(=O)COCCOCCNC(=O)COCCOCCNC(=O)CC[C@H](NC(=O)CCCCCCCCCCCCCCCCC(=O)O)C(=O)O)CSSC[C@@H](C(=O)O)NC(=O)CNC(=O)[C@H](CC(C)C)NC(=O)CNC(=O)[C@H](CO)NC(=O)[C@H](CC(C)C)NC(=O)[C@H](CO)NC(=O)CNC1=O` [compound 1377] ({C18 diacid-γGlu-AEEA-AEEA}-YEGAQKKGGSKGCFGLPLDRIGSLSGLGC-OH; disulfide 13-29), the clearance under setting [1] is 0.00747 L/h/kg. Also, the half-life under setting [2] was 6.29 h.
Turning to `CC[C@H](C)[C@@H]1NC(=O)[C@H](CCCNC(=N)N)NC(=O)[C@H](CC(=O)O)NC(=O)[C@H](CC(C)C)NC(=O)[C@@H]2CCCN2C(=O)[C@H](CC(C)C)NC(=O)CNC(=O)[C@H](Cc2ccccc2)NC(=O)[C@@H](NC(=O)CNC(=O)[C@H](CCC(N)=O)NC(=O)[C@H](CO)NC(=O)CNC(=O)CNC(=O)[C@H](CCCCN)NC(=O)[C@H](CCCCN)NC(=O)[C@H](CCC(N)=O)NC(=O)[C@H](C)NC(=O)CNC(=O)[C@H](Cc2c[nH]cn2)NC(=O)[C@H](Cc2ccc(O)cc2)NC(=O)COCCOCCNC(=O)COCCOCCNC(=O)COCCOCCNC(=O)COCCOCCNC(=O)CC[C@H](NC(=O)CC[C@H](NC(=O)CCCCCCCCCCCCCCCCC(=O)O)C(=O)O)C(=O)O)CSSC[C@@H](C(=O)O)NC(=O)CNC(=O)[C@H](CC(C)C)NC(=O)CNC(=O)[C@H](CO)NC(=O)[C@H](CC(C)C)NC(=O)[C@H](CO)NC(=O)CNC1=O` [compound 1434] ({C18 diacid-γGlu-γGlu-AEEA-AEEA-AEEA-AEEA}-YHGAQKKGGSQGCFGLPLDRIGSLSGLGC-OH; disulfide 13-29), the clearance under setting [1] was 0.00764 L/h/kg. In addition, the half-life under setting [2] is 8.34 h.
For `CC[C@H](C)[C@@H]1NC(=O)[C@H](CCCNC(=N)N)NC(=O)[C@H](CC(=O)O)NC(=O)[C@H](CC(C)C)NC(=O)[C@@H]2CCCN2C(=O)[C@H](CC(C)C)NC(=O)CNC(=O)[C@H](Cc2ccccc2)NC(=O)[C@@H](NC(=O)CNC(=O)[C@H](CCC(N)=O)NC(=O)[C@H](CO)NC(=O)[C@H](CO)NC(=O)CNC(=O)[C@H](Cc2c[nH]cn2)NC(=O)[C@H](Cc2c[nH]cn2)NC(=O)[C@H](CCC(N)=O)NC(=O)[C@H](C)NC(=O)CNC(=O)[C@H](Cc2c[nH]cn2)NC(=O)[C@H](Cc2ccc(O)cc2)NC(=O)[C@H](CCCCN)NC(=O)[C@H](Cc2c[nH]cn2)NC(=O)[C@H](C)NC(=O)[C@H](CCC(N)=O)NC(=O)[C@@H]2CCCN2C(=O)[C@H](Cc2c[nH]cn2)NC(=O)[C@H](CCC(=O)O)NC(=O)[C@H](CCC(N)=O)NC(=O)COCCOCCNC(=O)COCCOCCNC(=O)CC[C@H](NC(=O)CCCCCCCCCCCCCCCCC(=O)O)C(=O)O)CSSC[C@@H](C(=O)O)NC(=O)CNC(=O)[C@H](CC(C)C)NC(=O)CNC(=O)[C@H](CO)NC(=O)[C@H](CC(C)C)NC(=O)[C@H](CO)NC(=O)CNC1=O` [compound 1381] ({C18 diacid-γGlu-AEEA-AEEA}-QEHPQAHKYHGAQHHGSSQGCFGLPLDRIGSLSGLGC-OH; disulfide 21-37), in that order: 0.00382 L/h/kg and 15.2 h.
For `CC[C@H](C)[C@@H]1NC(=O)[C@H](CCCNC(=N)N)NC(=O)[C@H](CC(=O)O)NC(=O)[C@H](CC(C)C)NC(=O)[C@H](CCCCN)NC(=O)[C@H](CC(C)C)NC(=O)CNC(=O)[C@H](Cc2ccccc2)NC(=O)[C@@H](NC(=O)CNC(=O)[C@H](CCCCN)NC(=O)[C@H](CO)NC(=O)[C@H](CC(C)C)NC(=O)CNC(=O)[C@H](CCCCN)NC(=O)[C@H](CCCCN)NC(=O)[C@H](CCC(N)=O)NC(=O)[C@H](C)NC(=O)CNC(=O)[C@H](Cc2c[nH]cn2)NC(=O)[C@H](CCC(=O)O)NC(=O)COCCOCCNC(=O)COCCOCCNC(=O)CC[C@H](NC(=O)CCCCCCCCCCCCCCCCC(=O)O)C(=O)O)CSSC[C@@H](C(=O)O)NC(=O)CNC(=O)[C@H](CC(C)C)NC(=O)CNC(=O)[C@H](CO)NC(=O)[C@H](CC(C)C)NC(=O)[C@H](CO)NC(=O)CNC1=O` [compound 1235], under “iv, 100 nmol/kg”, the clearance is 0.0115 L/h/kg and the half-life was 6.2 h. Where the note is “sc, 300 nmol/kg”, this molecule had a bioavailability of 65.8% and a half-life of 6.28 h.
For `CC[C@H](C)[C@@H]1NC(=O)[C@H](CCCNC(=N)N)NC(=O)[C@H](CC(=O)O)NC(=O)[C@H](CC(C)C)NC(=O)[C@@H]2CCCN2C(=O)[C@H](CC(C)C)NC(=O)CNC(=O)[C@H](Cc2ccccc2)NC(=O)[C@@H](NC(=O)CNC(=O)[C@H](CO)NC(=O)[C@H](CO)NC(=O)[C@H](CC(C)C)NC(=O)CNC(=O)[C@H](CCCCN)NC(=O)[C@H](CCCCN)NC(=O)[C@H](CCC(N)=O)NC(=O)[C@H](C)NC(=O)CNC(=O)[C@H](CCC(=O)O)NC(=O)[C@H](Cc2ccc(O)cc2)NC(=O)CNC(=O)CNC(=O)CNC(=O)COCCOCCNC(=O)COCCOCCNC(=O)CC[C@H](NC(=O)CCCCCCCCCCCCCCCCC(=O)O)C(=O)O)CSSC[C@@H](C(=O)O)NC(=O)CNC(=O)[C@H](CC(C)C)NC(=O)CNC(=O)[C@H](CO)NC(=O)[C@H](CC(C)C)NC(=O)[C@H](CO)NC(=O)CNC1=O` [compound 1378] ({C18 diacid-γGlu-AEEA-AEEA}-GGGYEGAQKKGLSSGCFGLPLDRIGSLSGLGC-OH; disulfide 16-32), the clearance under setting [1] is 0.00926 L/h/kg. Also, the half-life under setting [2] was 5.29 h.
